Test results from patent US12553903B2, “Ivaltinostat combination therapy for treating pancreatic cancer” (CG Pharmaceuticals, Inc, priority 2023, dated 2026).

Tests used:
[1] = tested on: PDAC after gemcitabine-based therapy; details: with bortezomib, seven patients enrolled; cited from earlier work
[2] = tested on: patients with advanced PDAC; assay: Phase II safety and adverse events (NCI-CTCAE v4.0); assay type: in vivo; details: for patients with dose reduced due to occurrence of AEs: three of 24 patients
Experimental: (§1) Tumor evaluation was performed at baseline, at the end of every two cycles, and/or at the end of the trial. For patients with measurable/non-measurable lesions, the Response Evaluation Criteria in Solid Tumors version 1.1 was used to evaluate target/non-target lesions. Serial measurements of carbohydrate antigen 19-9 (CA19-9) levels were performed at baseline and at the beginning of each treatment cycle. Patients were followed up for survival until death or study closure. Safety evaluation included vital signs, adverse events (AEs), adverse drug reactions, serious AEs, ECG, and clinic al laboratory tests, which were performed on days 1, 8 and 15 each cycle. AEs were graded according to the Common Terminology Criteria for Adverse Events, version 4.0, by the National Cancer Institute.
(§2) Full analysis set (FAS), per protocol (PP), and safety set analysis were defined according to the study protocol. FAS was defined as patients who had been evaluated for tumor response at least once after baseline. The PP analysis set included patients who received at least 70% and more of the intended study drug throughout the treatment period and without any significant violation of the protocol.

pancreatic cancer = details: 1250 mg/m^2 twice daily for 2 weeks followed by a 1-week rest, first line; cited from earlier work
[3] = tested on: metastatic pancreatic cancer; details: first line; cited from earlier work
advanced PDAC [4] = details: with gemcitabine; cited from earlier work
advanced PDAC [5] = details: combined with gemcitabine; cited from earlier work
[6] = tested on: germline BRCA-mutated metastatic pancreatic cancer; details: cited from earlier work
[7] = tested on: patients with unresectable pancreatic ductal adenocarcinoma (PDAC); assay type: in vivo
From the text: The present disclosure discloses a phase I/II study that evaluated the safety and efficacy of the histone deacetylase (HDAC) inhibitor, ivaltinostat, in combination with gemcitabine and erlotinib for advanced pancreatic ductal adenocarcinoma (PDAC). Patients diagnosed with unresectable, histologically confirmed PDAC who had not undergone previous therapy were eligible. […] In phase II, patients received a six-cycle treatment with the MTD of ivaltinostat determined in phase I. The primary endpoint was the objective response rate (ORR). Secondary endpoints included overall survival (OS), disease control rate (DCR), and progression-free survival (PFS). The MTD of ivaltinostat for the phase II trial was determined to be 250 mg/m^2. In phase II, 24 patients were enrolled. The median OS and PFS were 8.6 (95% confidence interval [CI]: 5.3-11.2) and 5.3 months (95% CI: 3.7-5.8). Of the 16 patients evaluated for response, ORR and DCR were 25.0% and 93.8% with a median OS/PFS of 10.8 (95% CI: 8.3-16.7)/5.8 (95% CI: 4.6-6.7) months.
One study disclosed herein was a single-arm phase I/II clinical study. The study evaluated the efficacy and safety of ivaltinostat in combination with gemcitabine and erlotinib for advanced pancreatic cancer. […] The DLT was assessed according to the National Cancer Institute Common Toxicity Criteria version 4.0. […]

clinical = details: human, in vivo, iv
Experimental: The MTD was defined as the dose at which one or zero patients developed a DLT among six-patient cohort. Based on the 3+3 dose escalation design, each cohort consists of three or six subjects. If one in three subjects had experienced DLT in a specific dose, the dose was administered to an additional three subjects and a total of six patients were checked for the occurrence of DLT. If two or more subjects in any cohort had experienced a DLT, the previous dose was considered MTD, and the dose escalation ended. […] Gemcitabine and erlotinib were administered as fixed doses; gemcitabine (1000 mg/m^2 intravenously), and erlotinib (100 mg/day orally), whereas ivaltinostat was administered according to the dose level for each cohort. Each cycle consisted of 28 days. Both ivaltinostat and gemcitabine were administered on days 1, 8, and 15 and erlotinib was administrate d daily for each 28-day cycle.

[8] = tested on: advanced pancreatic ductal adenocarcinoma (PDAC); assay: Phase II efficacy (ORR, DCR, OS, PFS); assay type: in vivo, human
Experimental: Both ivaltinostat and gemcitabine were administered via the same protocol as that in the phase I study, until development of unacceptable toxicity or disease progression. The entire treatment period was six cycles and could be extended to 12 cycles if the patients wanted to continue the regimen and the principal investigator agreed. Tumor assessment was evaluated at the end of every two cycles. Dose reduction or delay could be applied for intolerant patients according to the study protocol.
The primary endpoint was the ORR, which was defined as the rate (%) of patients who had best tumor assessment with complete response (CR) or partial response (PR) during the treatment period. Secondary endpoints included disease control rate (DCR), OS, and progression-free survival (PFS). DCR was defined as the rate (%) of patients who had best tumor assessment with CR, PR, or stable disease (SD) during the treatment period. OS was defined as the time from the date of the first enrollment to the date of death from any cause. Patients who were still alive or withdrew at the date of cut off were censored. PFS was defined as the time from the date of the first enrollment to the date of tumor progression or to the date of death from any cause. Patients were followed up for survival until death, withdrawal, or study closure.
as §1
as §2, with “the protocol. The safety cohort included all patients who had received the study drug at least once.” for “the protocol.”
Statistical Analysis: To identify MTD and DLT, the 3+3 dose escalation design was utilized and based on the method of determining MTD described above. In total, 10 patients were enrolled in the phase I study. The estimated sample size for the phase II study after the determination of MTD was calculated based on Simon's 2 stage design25 with a reference of published data of 8.6% ORR from a phase III randomized controlled trial of gemcitabine and erlotinib combination therapy. Assuming a difference in response probability of study drug=20%, α=0.05, and statistical power=90%, the estimated minimally required sample size for phase II study based on binomial distribution probability may be 9 for initial stage and increase to a total of 24 patients if more than one patient had responded to the study drug during the initial stage. The safety analysis included all patients who had received a single dose of the study drug. The main efficacy analysis was based on the FAS population, defined as a group of patients who had received at least single dose of study drug and had at least one tumor response evaluation after the baseline assessment.

[9] = FAS analysis (n=16), with gemcitabine + erlotinib
[10] = Grade 3, treatment-related, phase II (n = 24)
[11] = Grade 4, treatment-related, phase II (n = 24)
[12] = Total grade 3 and 4, treatment-related, phase II (n = 24)

Compound: Cc1[nH]c2ccccc2c1CCNCc1ccc(/C=C/C(=O)NO)cc1 [panovinostat]
- study outcome [1]: suspended due to lack of response and toxicity

Compound: C#Cc1cccc(Nc2ncnc3cc(OCCOC)c(OCCOC)cc23)c1 [erlotinib, reference compound]
- patients with dose reduced ([2]; phase II, 24 patients): no patient received a reduced dose

Compound: CCCCCOC(=O)Nc1nc(=O)n([C@@H]2O[C@H](C)[C@@H](O)[C@H]2O)cc1F [Capecitabine, capecitabine]
- efficacy and tolerability (pancreatic cancer): effective and tolerable

Compound: FOLFIRINOX
- median progression-free survival (PFS) [3]: 6.4 months
- overall survival (OS) [3]: 11.1 months

Compound: Nc1ccccc1NC(=O)c1ccc(CNc2nccc(-c3cccnc3)n2)cc1 [mocetinostat]
- clinical activity and toxicity (advanced PDAC [4]): showed only limited clinical activity

Compound: Nc1ccn([C@@H]2O[C@H](CO)[C@@H](O)C2(F)F)c(=O)n1 [gemcitabine, reference compound]
- patients with dose reduced due to occurrence of AEs ([2]; phase II): 12.5%

Compound: CC(=O)Nc1ccc(C(=O)Nc2ccccc2N)cc1 [tacedinaline]
- clinical benefit vs gemcitabine alone (advanced PDAC [5]): no advantage over gemcitabine alone

Compound: O=C(c1cc(Cc2n[nH]c(=O)c3ccccc23)ccc1F)N1CCN(C(=O)C2CC2)CC1 [olaparib]
- median PFS ([6]; maintenance after ≥16 weeks of platinum-based therapy, gBRCA mutations, placebo 3.8): 7.4 months
- HR for PFS vs. placebo ([6]; p=0.004): 0.53

Compound: CN(C)CCCNC(=O)/C(=C/CCCCC(=O)NO)COc1cccc2ccccc12.O=P(O)(O)O [ivaltinostat, (E)-N1-(3-(dimethylamino)propyl)-N8-hydroxy-2-((naphthalen-1-yloxy)methyl)oct-2-enediamide phosphate]
- dose-limiting toxicity (DLT) ([7]; human, in vivo, 28 day): One DLT, a febrile neutropenia of grade 3
- maximum tolerable dose (MTD) / recommended dose for phase II ([7]; iv days 1, 8, 15 with gemcitabine 1000 mg/m2 iv and erlotinib 100 mg/day orally, 28-day cycle): 250 mg/m^2
- AUC(0-t) (clinical; 187.5 mg/m2): 28300 ng·h/mL
- Cmax (clinical; 187.5 mg/m2): 9550 ng/mL
- half-life (clinical; 187.5 mg/m2): 7.3 h
- AUC(0-t) (clinical; 250 mg/m2): 35100 ng·h/mL
- Cmax (clinical; 250 mg/m2): 8060 ng/mL
- half-life (clinical; 250 mg/m2): 5.7 h
- AUC(0-t) (clinical; 312.5 mg/m2): 65400 ng·h/mL
- Cmax (clinical; 312.5 mg/m2): 12800 ng/mL
- half-life (clinical; 312.5 mg/m2): 6.6 h
- PRs, % of patients ([8]; FAS analysis (n=16)): 25%
- PRs, number of patients ([8]; FAS analysis (n=16)): 4
- SDs, % of patients ([8]; FAS analysis (n=16)): 68.8%
- SDs, number of patients ([8]; FAS analysis (n=16)): 11
- median OS ([8]; FAS analysis (n=16)): 10.8 months
- median PFS ([8]; FAS analysis (n=16)): 5.8 months
- DCR [8, 9]: 93.8%
- ORR [8, 9]: 25.0%
- DCR ([8]; PP analysis (n=10)): 100%
- ORR ([8]; PP analysis (n=10)): 30%
- PRs, % of patients ([8]; PP analysis (n=10)): 30%
- PRs, number of patients ([8]; PP analysis (n=10)): 3
- SDs, % of patients ([8]; PP analysis (n=10)): 70%
- SDs, number of patients ([8]; PP analysis (n=10)): 7
- median OS ([8]; PP analysis (n=10)): 11.7 months
- median PFS ([8]; PP analysis (n=10)): 5.9 months
- median OS ([8]; all patients (n=23), ivaltinostat 250 mg/m^2 + gemcitabine 1000 mg/m^2 + erlotinib 100 mg/day): 8.6 months
- median PFS ([8]; all patients (n=23), ivaltinostat 250 mg/m^2 + gemcitabine + erlotinib): 5.3 months
- Anemia, % of patients [2, 10]: (16.7) %
- Anemia, number of patients [2, 10]: 4
- Anorexia, % of patients [2, 10]: (8.3) %
- Anorexia, number of patients [2, 10]: 2
- Fatigue, % of patients [2, 10]: (8.3) %
- Fatigue, number of patients [2, 10]: 2
- Febrile neutropenia, % of patients [2, 10]: (8.3) %
- Febrile neutropenia, number of patients [2, 10]: 2
- Neutropenia, % of patients [2, 10]: (12.5) %
- Pneumonia, number of patients [2, 10]: 0
- Thrombocytopenia, % of patients [2, 10]: (16.7) %
- Thrombocytopenia, number of patients [2, 10]: 4
- Neutropenia, number of patients ([2]; Grade 3, treatment-related, phase II (n = 24), with gemcitabine + erlotinib): 3
- Anemia, number of patients [2, 11]: 0
- Anorexia, number of patients [2, 11]: 0
- Fatigue, number of patients [2, 11]: 0
- Febrile neutropenia, number of patients [2, 11]: 0
- Neutropenia, % of patients [2, 11]: (20.8) %
- Neutropenia, number of patients [2, 11]: 5
- Pneumonia, % of patients [2, 11]: (4.2) %
- Pneumonia, number of patients [2, 11]: 1
- Thrombocytopenia, % of patients [2, 11]: (12.5) %
- Thrombocytopenia, number of patients [2, 11]: 3
- Anorexia, % of patients [2, 12]: (8.3) %
- Anorexia, number of patients [2, 12]: 2
- Fatigue, % of patients [2, 12]: (8.3) %
- Fatigue, number of patients [2, 12]: 2
- Febrile neutropenia, % of patients [2, 12]: (8.3) %
- Febrile neutropenia, number of patients [2, 12]: 2
- Pneumonia, % of patients [2, 12]: (4.2) %
- Pneumonia, number of patients [2, 12]: 1
- ADR decreased appetite ([2]; phase II, 24 subjects): 11 events
- ADR decreased platelet count ([2]; phase II, 24 subjects): 15 events
- ADR nausea ([2]; phase II, 24 subjects): 10 events
- ADR rash ([2]; phase II, 24 subjects): 11 events
- ADR vomiting ([2]; phase II, 24 subjects): 10 events
- ADRs with grade 3 or 4 severity ([2]; phase II, 24 subjects): 26
- AEs reported ([2]; phase II, 24 subjects): 218
- grade 5 (death) events ([2]; phase II, 24 subjects): no grade 5 (death) events
- adverse drug reactions (ADRs) ([2]; phase II, all 24 subjects): 114
- patients with dose reduced due to occurrence of AEs ([2]; phase II): 12.5%
